Reference: PMC10758494 (Frontiers in Pharmacology, 2023)
“And” between values parts separate entries of the source, which are not always exact repeats. Equal values may be shown once. Read-outs that look alike come from different tables or passages of the source. Positions of bridges follow the written chain, without caps; N, C: chain ends. Residues, ends and D or L forms follow the SMILES beside them.

Tests used:
[1] = biological target: T1, human α7 nAChR (Homo sapiens, UniProt P36544); test: cell-based; settings: for inhibition at 500 µM: read-out: Inhibition of PNU282987-evoked response
T1 construct: α7 nAChR endogenously expressed in neuroblastoma SH-SY5Y cells; endogenous in cells; host or cells: SH-SY5Y human neuroblastoma cells
T1 sequence (P36544 23-502): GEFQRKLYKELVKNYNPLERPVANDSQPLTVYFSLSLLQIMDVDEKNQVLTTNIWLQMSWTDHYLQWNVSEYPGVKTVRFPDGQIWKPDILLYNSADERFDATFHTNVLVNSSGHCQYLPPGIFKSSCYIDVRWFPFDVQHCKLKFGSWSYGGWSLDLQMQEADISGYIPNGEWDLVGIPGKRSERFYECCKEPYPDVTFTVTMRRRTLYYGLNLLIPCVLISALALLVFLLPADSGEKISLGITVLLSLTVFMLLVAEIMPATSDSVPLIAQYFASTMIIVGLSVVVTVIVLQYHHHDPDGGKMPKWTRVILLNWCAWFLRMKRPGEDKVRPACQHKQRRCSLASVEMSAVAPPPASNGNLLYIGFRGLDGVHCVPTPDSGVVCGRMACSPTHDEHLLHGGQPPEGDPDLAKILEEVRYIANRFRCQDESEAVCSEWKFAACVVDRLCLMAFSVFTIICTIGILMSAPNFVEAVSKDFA

[2] = biological target: T2, human α9α10 nAChR (Homo sapiens, UniProt Q9GZZ6+Q9UGM1); parameters: method as in Lebedev et al., 2019; settings: read-out: IC50 on α9α10 nAChR; 95% CI in brackets; ref Lebedev et al., 2019; cited from earlier work
T2 construct: expressed in transfected cells; host or cells: Xenopus laevis oocytes injected with cRNA
T2 sequence (Q9UGM1 26-479 limits assumed): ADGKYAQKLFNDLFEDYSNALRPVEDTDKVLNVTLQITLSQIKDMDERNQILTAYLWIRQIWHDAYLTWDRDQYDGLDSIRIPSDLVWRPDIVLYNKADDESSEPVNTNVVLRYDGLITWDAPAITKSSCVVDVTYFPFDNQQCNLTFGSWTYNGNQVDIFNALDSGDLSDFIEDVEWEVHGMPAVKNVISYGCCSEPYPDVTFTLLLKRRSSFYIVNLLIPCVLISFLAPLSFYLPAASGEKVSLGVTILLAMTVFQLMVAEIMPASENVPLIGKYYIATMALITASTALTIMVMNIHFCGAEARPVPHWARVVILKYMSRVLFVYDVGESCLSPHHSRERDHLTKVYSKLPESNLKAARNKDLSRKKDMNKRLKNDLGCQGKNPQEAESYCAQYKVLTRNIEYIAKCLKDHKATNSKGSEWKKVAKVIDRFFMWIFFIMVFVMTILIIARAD
T2 sequence (Q9GZZ6 25-450): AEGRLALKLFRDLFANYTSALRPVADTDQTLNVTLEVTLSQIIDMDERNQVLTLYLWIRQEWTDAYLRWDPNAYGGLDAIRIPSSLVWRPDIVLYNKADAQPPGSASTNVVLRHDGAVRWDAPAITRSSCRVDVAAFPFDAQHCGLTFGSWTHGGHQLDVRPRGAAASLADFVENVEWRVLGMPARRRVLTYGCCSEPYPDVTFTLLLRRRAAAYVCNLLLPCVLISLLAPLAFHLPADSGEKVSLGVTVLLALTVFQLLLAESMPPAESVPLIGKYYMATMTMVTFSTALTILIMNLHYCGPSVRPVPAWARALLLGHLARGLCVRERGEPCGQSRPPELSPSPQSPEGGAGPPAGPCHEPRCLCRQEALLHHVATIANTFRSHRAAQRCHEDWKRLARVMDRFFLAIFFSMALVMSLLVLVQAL

[3] = biological target: T3, rat α9α10 nAChR (Rattus norvegicus, UniProt P43144+Q9JLB5); test: cell-based; settings: for IC50: 500 μM ACh, X. laevis oocytes
T3 construct: expressed in transfected cells; host or cells: Xenopus laevis oocytes injected with cRNA
T3 sequence (P43144 26-479): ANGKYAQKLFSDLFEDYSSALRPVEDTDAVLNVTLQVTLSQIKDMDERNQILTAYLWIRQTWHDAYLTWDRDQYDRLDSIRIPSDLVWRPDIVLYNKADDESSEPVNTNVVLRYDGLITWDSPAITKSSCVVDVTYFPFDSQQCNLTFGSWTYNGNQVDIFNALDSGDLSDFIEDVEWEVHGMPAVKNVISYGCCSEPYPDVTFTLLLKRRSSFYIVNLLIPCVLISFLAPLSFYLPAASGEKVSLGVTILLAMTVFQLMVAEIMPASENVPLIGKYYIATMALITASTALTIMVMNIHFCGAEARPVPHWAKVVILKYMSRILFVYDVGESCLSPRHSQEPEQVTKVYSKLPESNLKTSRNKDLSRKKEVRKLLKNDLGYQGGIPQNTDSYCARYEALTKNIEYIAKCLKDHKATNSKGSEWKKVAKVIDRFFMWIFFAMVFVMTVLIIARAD
T3 sequence (Q9JLB5 25-447): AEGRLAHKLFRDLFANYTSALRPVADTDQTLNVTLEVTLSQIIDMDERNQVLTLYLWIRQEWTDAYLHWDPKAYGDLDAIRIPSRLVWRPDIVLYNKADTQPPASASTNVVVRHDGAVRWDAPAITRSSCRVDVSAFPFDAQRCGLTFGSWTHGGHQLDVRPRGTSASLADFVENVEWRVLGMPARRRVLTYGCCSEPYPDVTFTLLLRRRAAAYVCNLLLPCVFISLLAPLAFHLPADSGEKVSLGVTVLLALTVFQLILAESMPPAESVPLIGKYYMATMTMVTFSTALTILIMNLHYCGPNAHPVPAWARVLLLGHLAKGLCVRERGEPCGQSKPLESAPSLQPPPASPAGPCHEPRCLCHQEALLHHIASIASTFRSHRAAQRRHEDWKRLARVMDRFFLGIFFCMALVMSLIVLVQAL

[4] = system: SH-SY5Y cells; test: Calcium imaging, effect of compound alone on [Ca2+]i in SH-SY5Y cells; format: cell-based, human; settings: 10 μM, without α7 nAChR activation
[5] = biological target: T2, human α9α10 nAChR; test: Two-electrode voltage clamp, human α9α10 nAChR in X. laevis oocytes; format: cell-based; settings: IC50, inhibition of ACh-evoked currents (α9α10 nAChR), 500 μM ACh, mean ± SEM

## N=C(N)NCCC[C@H](NC(=O)[C@H](CCCNC(=N)N)NC(=O)[C@H](CCCNC(=N)N)NC(=O)[C@H](CCCNC(=N)N)NC(=O)[C@H](CCCNC(=N)N)NC(=O)[C@H](CCCNC(=N)N)NC(=O)[C@H](CCCNC(=N)N)NC(=O)[C@@H](N)CCCNC(=N)N)C(=O)O [R8, octa-arginine]
[1]
  IC50: 14.5 ± 1 nM
[2]
  IC50: 44 nM

## CC(CN)CNCCCCNCC(C)CN (racemic) [rac-2,11-Me2Spm]
[3]; read-out: IC50, inhibition of rat α9α10 nAChR
  IC50: ~500000 nM

## NCCCNCCCCNCCCN [Spm, spermine]
[1]; SH-SY5Y
  inhibition at 500 µM: ~20%
[3]
  Inhibition of rat α9α10 nAChR at 500 μM: no inhibition

## N=C(N)NCCC[C@H](N)C(=O)NCCCNCCCNCCCCCNC(=O)[C@H](CC(N)=O)NC(=O)Cc1ccc(O)cc1O [AgTx-636, argiotoxin-636]
[1]; SH-SY5Y, read-out: Inhibition of the action of α7 nAChR agonist PNU282987
  inhibition at 10 µM: ≥ 70%
[3]; IC50, inhibition of ACh-evoked currents (rat α9α10 nAChR)
  IC50: ~200 nM and 220 nM
[4]
  [Ca2+]i change caused by the compound alone: noticeable [Ca^2+]i increase

## N=C(N)NCCC[C@@H]1NC(=O)[C@H](CCCNC(=N)N)NC(=O)[C@H](CCCNC(=N)N)NC(=O)[C@H](CCCNC(=N)N)NC(=O)[C@H](CCCNC(=N)N)NC(=O)[C@H](CCCNC(=N)N)NC(=O)[C@H](CCCNC(=N)N)NC(=O)[C@H](CCCNC(=N)N)NC(=O)[C@@H](N)CSSC[C@@H](C(=O)O)NC1=O [“cyclo”R8] (H-CRRRRRRRRC-OH; disulfide 1-10)
[1]
  IC50: 13.3 ± 3 nM
[5]
  IC50: ~60 nM and 61.8 nM

## α-cobratoxin [CTX]
[1]; compound 5 μM, 200 nM PNU282987, SH-SY5Y cells
  Suppression of α7 nAChR activity: completely suppressed

## NCCCCN=C(N)N [Agm, agmatine]
[1]; SH-SY5Y
  inhibition at 500 µM: ~20%
